Here are results for 1 compound from publication PMC11626952, “Preclinical evaluation of radiolabeled tissue factor-targeted peptide for theranostics of hepatocellular carcinoma post percutaneous ethanol injection” (Theranostics, 2024).

Structures are written as SMILES. Where a SMILES comes first, the peptide text is derived from it. Side-chain parts run from the residue outwards. The star is where a group is joined. NOTA = O=C(O)CN1CCN(CC(=O)O)CCN(CC(=O)*)CC1; PEG8 = NCCOCCOCCOCCOCCOCCOCCOCCOCCC(=O)O

Details of data set [1]: species or system Kunming mice. Particulars: mouse, in vivo. The protocol:
increased to 95 °C, and maintained for 15 min. The crude product was purified using a C18 Sep-Pak cartridge and sterilized for subsequent applications. Radiolabeling efficiency was assessed using radio-thin-layer chromatography with citrate solvent (0.1 M, pH 4.0) as the mobile phase.
Small animal biodistribution and pharmacokinetics study of Al18F-NOTA-tTF A small animal biodistribution experiment was conducted with female Kunming mice (5 weeks). The mice were divided into six groups with 3-4 mice in each group. Al18F-NOTA-tTF (1.2 MBq) was injected into KM mice via the tail vein and a 1% injected dose of Al18F-NOTA-tTF was prepared for reference. At 5 min,15 min, 30 min, 60 min, 90 min and 120 min post-injection, the KM mice were euthanized and organs of interest were collected, wet-weighed. The uptake in various organs and tissues was determined and expressed in terms of the percentage injected dose per gram (%ID/g, mean ± SD) after quantifying the radioactivity of the samples using an […]
For the pharmacokinetic study, each Kunming mouse was intravenously injected with a 3.7 MBq of Al18F-NOTA-tTF. Small amounts of blood were obtained through the orbital vein of the […]
weighed and measured for radioactivity by the γ-counter. The results are expressed as the percentage injected dose per gram (%ID/g).
(§1) Al18F-NOTA-tTF PET/CT imaging in mice bearing Hepa1-6 xenografts
(§2) Al18F-NOTA-tTF PET/CT imaging of Hepa1-6 tumor-bearing mice were intravenously injected with 100 μL of Al18F-NOTA-tTF (2.96 MBq). In the blocking experiments, unlabeled excess precursors (0.2 mg) were co-injected with Al18F-NOTA-tTF into Hepa1-6 mice (n = 3).
One hour after Al18F-NOTA-tTF injection, the mice were anesthetized and placed in the prone

The format of data set [2] is physicochemical. From the text:
(§3) instant thin layer chromatography. The stability of Al18F-NOTA-tTF in PBS (C) and FBS (D) via
(§4) instant thin layer chromatography. The stability of 68Ga-DOTA-tTF in PBS (E) and FBS (F) via
(§5) instant thin layer chromatography.
(§6) FBS: fetal bovine serum; PBS: phosphate-buffered saline.

A further data set in a line: in vivo. On the set-up: species or system mice. Conditions: mouse, iv, 1.2 MBq, total radioactivity, tumor uptake (biodistribution), PEI group. The protocol: (§7) We randomly divided tumor-bearing mice into the HD-PEI treatment (HD-PEI, n = 8), sham treatment (Sham, n = 8), and negative control groups (NC, n = 6). Al^18F-NOTA-tTF PET/CT imaging was conducted on days 1 and 6 post-PEI. Hepa1-6 tumor-bearing mice received an intravenous injection of 100 μL of Al^18F-NOTA-tTF (2.96 MBq). Tumor volume and mouse body weight were monitored every 2 to 3 days. Biodistribution studies were performed on days 1 and 6 post-PEI, with mice divided into PEI and NC groups. Al^18F-NOTA-tTF (1.2 MBq) was administered via tail vein injection, and biodistribution results were expressed as the percentage of injected dose per gram (%ID/g).

The target in data set [3] is T1, tissue factor (TF) (Mus musculus, UniProt P20352).
T1 construct: Hepa1-6 tumor-bearing mice received an intravenous injection of 100 μL of Al^18F-NOTA-tTF (2.96 MBq); from tissue; host or cells: subcutaneous Hepa1-6 tumours in male C57BL/6 mice
T1 sequence (P20352 29-294): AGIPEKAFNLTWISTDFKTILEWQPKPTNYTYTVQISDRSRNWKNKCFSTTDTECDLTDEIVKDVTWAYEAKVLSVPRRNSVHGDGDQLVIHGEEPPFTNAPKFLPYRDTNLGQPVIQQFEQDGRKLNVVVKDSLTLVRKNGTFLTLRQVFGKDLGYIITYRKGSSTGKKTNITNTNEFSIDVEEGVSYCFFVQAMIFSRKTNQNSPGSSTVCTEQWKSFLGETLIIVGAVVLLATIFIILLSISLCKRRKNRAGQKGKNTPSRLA
Nature of the data set: in vivo. Conditions: iv, 1.2 MBq, 1 h. On the set-up: species or system mice. The protocol:
as §7

Data set [4] deals with T1, tissue factor (TF). Briefly: Al18F-NOTA-tTF PET/CT imaging in Hepa1-6 tumor-bearing mice. Format: in vivo. Particulars: for tumor uptake SUVmax, PEI group: n = 8. The protocol: […] Al^18F-NOTA-tTF PET/CT imaging was conducted on days 1 and 6 post-PEI. Hepa1-6 tumor-bearing mice received an intravenous injection of 100 μL of Al^18F-NOTA-tTF (2.96 MBq). Tumor volume and mouse body weight were monitored every 2 to 3 days. Biodistribution studies were performed on days 1 and 6 post-PEI, with mice divided into PEI and NC groups. Al^18F-NOTA-tTF (1.2 MBq) was administered via tail vein injection, and biodistribution results were expressed as the percentage of injected dose per gram (%ID/g).
Tumor-bearing mice were randomly divided into the HD-PEI treatment (HD-PEI, n = 8), LD-PEI treatment (LD-PEI, n = 8), and negative control (NC, n = 8) groups. Al^18F-NOTA-tTF PET/CT imaging was conducted on days 1, 5, and 12 post-PEI.^ 18F-FDG PET/CT imaging was conducted on days 2, 6, and 13 post-PEI. Hepa1-6 tumor-bearing mice received intravenous injections of 100 μL of Al^18F-NOTA-tTF (2.96 MBq) and^ 18F-FDG (2.96 MBq). Tumor volume and mouse body weight were monitored every 2 days. […]
increased to 95 °C, and maintained for 15 min. The crude product was purified using a C18 Sep-Pak cartridge and sterilized for subsequent applications. Radiolabeling efficiency was assessed using radio-thin-layer chromatography with citrate solvent (0.1 M, pH 4.0) as the mobile phase. […]
as §1, §2
One hour after Al18F-NOTA-tTF injection, the mice were anesthetized and placed in the prone […]
position on the scanning bed. The PET/CT imaging was acquired with a PET/CT scanner (uBio-EXPLORER, United Imaging, China). PET images were collected for 10 min and reconstructed to get more high-resolution images using an ordered subsets expectation maximization (OSEM) algorithm (4 OSEM iterations, resolution: 1.4 mmHD) with scatter, attenuation, and decay corrections applied. Regions of interest (ROIs) were drawn on the CT images and further mapped on PET. The SUVmax of the tumor and muscle were calculated and referred to as the tumor-to- […]
PEI treatment and efficacy monitoring
In this study, we established a model of incomplete ablation of hepatocellular carcinoma using percutaneous ethanol injection (PEI). Once the tumor volume reached approximately 100 mm3, all mice were randomly assigned to treatment, sham treatment, and negative control groups.
During the PEI procedure, an insulin needle was inserted along the long diameter of the tumor, with needle depth set at1/2 to 2/3 of the tumor diameter. Ethanol was injected at a rate of 25 μL every half minute, and the needle was slowly withdrawn after 5 minutes of injection. Ethanol leakage from the tumor was assessed using CT scans immediately following PEI treatment, defined as day 0. Subsequently, 18F-FDG PET/CT imaging was performed on day 1 post-PEI to evaluate therapeutic efficacy. Tumor volume and mouse body weight were monitored every 2 to 3 days. Tumor volume was calculated using the formula volume = (length × width^2)/2.
Radioligand therapy study
Mice were randomly assigned to five groups: PEI (group 1, n = 10), PEI + 0.45 mCi 177Lu-DOTA-tTF (group 2, n = 10), PEI + 0.75 mCi 177Lu-DOTA-tTF (group 3, n = 8), 0.45 mCi 177Lu-DOTA-tTF (group 4, n = 10), and saline (group 5, n = 10). During radiotherapy, one mouse died in […]

Data set [5] is classed as in vitro ADME, bovine.
From the text: as §3, §4, §5, §6

[6] abbreviates: HD/LD-PEI models, day 1 post-PEI.
The mark [7] stands for this setting: HD/LD-PEI models, day 5 post-PEI.
[8] abbreviates: HD/LD-PEI models, day 12 post-PEI.
Where [9] appears, read: day 1 post-PEI, 60 min post-injection, n = 6.

On to `CC(C)C[C@H](NC(=O)[C@@H](NC(=O)[C@@H](N)CCCNC(=N)N)[C@@H](C)O)C(=O)N[C@@H](C)C(=O)N[C@@H](Cc1ccccc1)C(=O)N[C@H](C(=O)N[C@@H](CCCNC(=N)N)C(=O)N[C@@H](Cc1ccccc1)C(=O)N[C@@H](CCCCNC(=O)CCOCCOCCOCCOCCOCCOCCOCCOCCNC(=O)CN1CCN(CC(=O)O)CCN(CC(=O)O)CC1)C(=O)O)C(C)C` [Al^18F-NOTA-tTF] (H-RTLAFVRFK([PEG8-NOTA])-OH), for which, in data set [1], the renal clearance result is recorded as “rapid renal clearance”. Moreover, in data set [1] (iv), the “distribution phase half-life (Half-life Fast)” value is 1.192 min and the “elimination phase half-life (Half-life Slow)” value came to 12.29 min. For the same compound, the “Vitro stability in PBS” value in data set [2] was > 95% (3 h). Further, the tissue uptake at 1 h in “in vivo” was determined as 0.77 ± 0.25 %ID/g. In the data set with tissue factor (TF) [3], the “tumor uptake (biodistribution), PEI group” value is 0.50 ± 0.28 %ID/g. Further, the “tumor uptake SUVmax, NC group” value on tissue factor (TF) [4] (HD/LD-PEI models, day 1) is 0.12 ± 0.04. For the same compound, on tissue factor (TF) [4] (setting [6]), the “tumor uptake SUVmax, HD-PEI group” value was 0.42 ± 0.17 and the “tumor uptake SUVmax, LD-PEI group” value was determined as 0.54 ± 0.23. For the same compound, the “tumor uptake SUVmax, NC group” value at tissue factor (TF) [4] (HD/LD-PEI models, day 5) turned out to be 0.16 ± 0.06. Further, on tissue factor (TF) [4] (setting [7]), the “tumor uptake SUVmax, HD-PEI group” value was 0.33 ± 0.09 and the “tumor uptake SUVmax, LD-PEI group” value was found to be 0.30 ± 0.09. Also, on tissue factor (TF) [4] (setting [8]), the “tumor SUVmax, HD-PEI group” value amounted to 0.25 ± 0.10 and the “tumor SUVmax, LD-PEI group” value is 0.31 ± 0.08. Further, at tissue factor (TF) [4] (Hepa1-6 tumor-bearing mice, 0.2 mg unlabeled precursor, 60 min post-injection, n = 3), the “tumor uptake SUVmax, blocked” value is reported as 0.07 ± 0.010. Moreover, on tissue factor (TF) [4] (Hepa1-6 tumor-bearing mice, 60 min post-injection, n = 3), the “tumor uptake SUVmax, non-blocked” value is reported as 0.13 ± 0.005. Moreover, on tissue factor (TF) [4] (setting [9]), the “tumor uptake SUVmax, NC group” value is given as 0.12 ± 0.03 and the “tumor uptake SUVmax, Sham group” value is reported as 0.15 ± 0.04. The “tumor uptake SUVmax, PEI group” value on tissue factor (TF) [4] (day 1 post-PEI, 60 min post-injection) was determined as 0.62 ± 0.14. At tissue factor (TF) [4] (day 6 post-PEI, n = 6), the “tumor uptake SUVmax, NC group” value amounted to 0.11 ± 0.03 and the “tumor uptake SUVmax, Sham group” value stood at 0.11 ± 0.01. Also, at tissue factor (TF) [4] (day 6 post-PEI), the “tumor uptake SUVmax, PEI group” value turned out to be 0.46 ± 0.23. In addition, in data set [5], the “Vitro stability in FBS” value is recorded as > 95% (3 h) and the “in vitro stability in saline or fetal bovine serum” value was “remained stable”.
